We go through one compound from patent publication US9328141B2, “Polypeptides for the treatment or prevention of cancer and uses thereof” (WUHAN KATYGEN PHARMACEUTICALS, INC., priority 2010, dated 2016).

The test system of this test is colon tumor 26. Nature of the test: Anti-cancer effect in vivo, transplanted colon tumor 26 in mice. As to conditions: cisplatin 1 mg/kg ipx 5, Day 11. On the set-up: species or system BALB/c male mouse. An excerpt:
The tumors were excised and weighed.
Combine index (CI), CI=AB/(A×B). AB is the T/C of the combined effects of two drugs, A, B either is the T/C of the effect of one drug (when CI<1, these two drugs have combination).

As to `N.N.[Cl][Pt][Cl]` [Cisplatin, cisplatin], the The inhibitive rate stood at 44% and the “tumor weight x ± s” value is recorded as 1.39 ± 0.39 g.
